Our source for the IC50 values is US20260042764A1, “COMPOSITIONS AND METHODS FOR INHIBITION OF KRAS” (TheRas, Inc., priority 2022, published 2026).

Assay [1] has as its target T1, Avi-KRAS G12D (1-169) GppNHp/RAF1 RBD-3xFLAG (52-151) (Homo sapiens, UniProt P01116, G12D).
T1 construct: Avi-KRAS G12D (1-169)
As to the kind of experiment: Raf1-KRAS G12D-GppNHP disruption HTRF assay (Biological Example 1). In kind it is binding. The procedure, abridged: (§1)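 Using HTRF, the loss of KRAS–effector RAF1 complex was quantified in 50 mM Tris pH 7.5 buffer with 100 mM NaCl and 0.1% BSA. The protein step and reagent step ran 1 h each at room temperature. Activity normalized with DMSO taken as 100%.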
In general terms: In TR-FRET formats the signal depends on donor and acceptor labels being close together.

Assay [2] addresses T2, Avi-KRAS G12R (1-169) GppNHp/RAF1 RBD-3xFLAG (52-151) (Homo sapiens, UniProt P01116, G12R).
T2 construct: Avi-KRAS G12R (1-169)
As to the kind of experiment: Raf1-KRAS G12R-GppNHP disruption HTRF assay (Biological Example 1). In kind it is binding. The method in brief: as §1

The target of assay [3] is T3, Avi-KRAS G12V (1-169) GppNHp/RAF1 RBD-3xFLAG (52-151) (Homo sapiens, UniProt P01116, G12V).
T3 construct: Avi-KRAS G12V (1-169)
T3 sequence (P01116 1-169 isoform P01116-2 G12V): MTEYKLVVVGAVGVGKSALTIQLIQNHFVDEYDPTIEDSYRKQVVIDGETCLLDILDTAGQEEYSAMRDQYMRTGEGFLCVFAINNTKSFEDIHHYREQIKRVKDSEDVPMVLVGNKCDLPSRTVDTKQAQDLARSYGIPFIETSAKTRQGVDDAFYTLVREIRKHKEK
In words: Raf1-KRAS G12V-GppNHP disruption HTRF assay (Biological Example 1). In kind it is binding. The method in brief:
as §1

The target of assay [4] is T4, Avi-KRAS WT (1-169) GppNHp/RAF1 RBD-3xFLAG (52-151) (Homo sapiens, UniProt P01116).
T4 construct: Avi-KRAS WT (1-169)
T4 sequence (P01116 1-169 isoform P01116-2): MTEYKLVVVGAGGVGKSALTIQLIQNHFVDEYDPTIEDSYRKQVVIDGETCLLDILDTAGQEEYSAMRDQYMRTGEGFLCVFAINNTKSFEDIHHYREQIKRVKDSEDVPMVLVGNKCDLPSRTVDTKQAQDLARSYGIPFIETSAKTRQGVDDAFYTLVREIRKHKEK
As to the kind of experiment: Raf1-KRAS WT-GppNHP disruption HTRF assay (Biological Example 1). It counts as binding. The method in brief: as §1

The subject of assay [5] is GP2d cells (KRAS G12D). As to the kind of experiment: Cell-based pERK HTRF assay in GP2d cell (Biological Example 2). The note with it: GP2d (KRAS G12D) cells, pERK HTRF. The method in brief: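 GP2d (KRAS G12D) cells were plated in DMEM/10% FBS and treated the next day for 60 min with compounds. Dosing used 9-point half-log series starting at 1 μM or 100 nM in 0.25% DMSO. Lysates were read by HTRF pERK (d2/Eu cryptate antibodies) after 4–24 h at room temperature, with excitation at 320 nm and emission at 615 nm.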

In assay [6] the test system is SW620 cells (KRAS G12V). As to the kind of experiment: Cell-based pERK HTRF assay in SW620 cell (Biological Example 4). The note with it: pERK HTRF. The procedure, abridged: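 Read-out: HTRF pERK signal (excitation 320 nm, emission 615 nm) from lysates of SW620 cells after 4 h compound exposure. Dose range was 9 points, half-log steps from 1 μM, in 0.25% DMSO; antibody incubation ran 4–24 h at room temperature.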

Setting [7] is: Homo sapiens, SW-620, SW620 (KRAS G12V) cells.
Setting [8] is: KRAS G12D, GppNHp-loaded, class symbols.
Where [9] appears, read: KRAS G12R, GppNHp-loaded, class symbols.
Setting [10] is: KRAS G12V, GppNHp-loaded, class symbols.
[11] abbreviates: KRAS WT, GppNHp-loaded, class symbols.
Where [12] appears, read: Homo sapiens, SW-620, SW620 (KRAS G12V) cells, class symbols.

T1 sequence (P01116 1-169 isoform P01116-2 G12D): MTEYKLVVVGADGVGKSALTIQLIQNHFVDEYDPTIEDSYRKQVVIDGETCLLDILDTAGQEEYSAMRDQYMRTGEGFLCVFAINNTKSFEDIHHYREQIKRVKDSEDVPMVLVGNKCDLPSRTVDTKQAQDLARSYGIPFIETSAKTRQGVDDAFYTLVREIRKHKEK
T2 sequence (P01116 1-169 isoform P01116-2 G12R): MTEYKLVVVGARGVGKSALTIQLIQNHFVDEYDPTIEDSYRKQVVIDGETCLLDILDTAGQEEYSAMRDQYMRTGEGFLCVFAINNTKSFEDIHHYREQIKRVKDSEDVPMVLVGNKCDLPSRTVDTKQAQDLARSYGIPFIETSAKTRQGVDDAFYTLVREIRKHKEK

The IC50 is the concentration that inhibits the measured activity by half. A high value points to lower potency. `CN(c1nc(OC[C@@]23CCCN2C[C@H](F)C3)nc2c(F)c(-c3ccc(F)c4sc(N)c(C#N)c34)c(C(F)(F)F)cc12)C1CCCS(=O)(=O)C1` (stereo partly drawn) [Compound 341]: the IC50 is 100 to 1000 nM in assay [1] (KRAS G12D-GppNHp/RAF1 RBD HTRF); 100 to 1000 nM in assay [2] (KRAS G12R-GppNHp/RAF1 RBD HTRF); 1000 to 10000 nM in assay [3] (KRAS G12V-GppNHp/RAF1 RBD HTRF); 100 to 1000 nM in assay [4] (KRAS WT-GppNHp/RAF1 RBD HTRF); less than 100 nM in assay [5] (GP2d); 100 to 1000 nM in assay [6] (setting [7]).

As for `CCN(c1nc(OC[C@@]23CCCN2C[C@H](F)C3)nc2c(F)c(-c3ccc(F)c4sc(N)c(C#N)c34)c(C(F)(F)F)cc12)[C@H]1CCN(C(=O)OC2CCN(C(C)=O)CC2)C1` (atropisomer, axis not shown) [Compound 720], the IC50 is less than 100 nM in assay [1] (setting [8]); less than 100 nM in assay [2] (setting [9]); less than 100 nM in assay [3] (setting [10]); less than 100 nM in assay [4] (setting [11]); less than 100 nM in assay [5] (GP2d, class symbols); less than 100 nM in assay [6] (setting [12]).

In the case of `CC(C)C(=O)N1CC[C@@H](N(C)c2nc(OC[C@@]34CCCN3C[C@H](F)C4)nc3c(F)c(-c4ccc(F)c5sc(N)c(C#N)c45)c(C(F)(F)F)cc23)[C@@H]1C` [Compound 300], the IC50 in assay [1] (KRAS G12D-GppNHp/RAF1 RBD HTRF) is 100 to 1000 nM; in assay [2] (KRAS G12R-GppNHp/RAF1 RBD HTRF), 1000 to 10000 nM; in assay [3] (KRAS G12V-GppNHp/RAF1 RBD HTRF), 1000 to 10000 nM; in assay [4] (KRAS WT-GppNHp/RAF1 RBD HTRF) it was 100 to 1000 nM; in assay [5] (GP2d), less than 100 nM; in assay [6] (setting [7]), 100 to 1000 nM.

Consider `CCN(c1nc(OC[C@@]23CCCN2C[C@H](F)C3)nc2c(F)c(-c3ccc(F)c4sc(N)c(C#N)c34)c(C(F)(F)F)cc12)[C@H]1CCN(C(=O)C2COC2)C1` (atropisomer, axis not shown) [Compound 580], for which the IC50 in assay [1] (setting [8]) is less than 100 nM; in assay [2] (setting [9]), less than 100 nM; in assay [3] (setting [10]), less than 100 nM; in assay [4] (setting [11]) it was less than 100 nM; in assay [5] (GP2d, class symbols), less than 100 nM; in assay [6] (setting [12]), less than 100 nM.

On to `C[C@@H]1[C@H](N(C)c2nc(OC[C@@]34CCCN3C[C@H](F)C4)nc3c(F)c(-c4ccc(F)c5sc(N)c(C#N)c45)c(C(F)(F)F)cc23)CCN1C(=O)C1CC1` (atropisomer, axis not shown) [Compound 334], for which the IC50 was greater than 10000 nM in assay [1] (KRAS G12D-GppNHp/RAF1 RBD HTRF); greater than 10000 nM in assay [2] (KRAS G12R-GppNHp/RAF1 RBD HTRF); greater than 10000 nM in assay [3] (KRAS G12V-GppNHp/RAF1 RBD HTRF); greater than 10000 nM in assay [4] (KRAS WT-GppNHp/RAF1 RBD HTRF); 100 to 1000 nM in assay [5]; 100 to 1000 nM in assay [6] (SW620 (KRAS G12V) cells).

`CCN(c1nc(OC[C@@]23CCCN2C[C@H](F)C3)nc2c(F)c(-c3ccc(F)c4sc(N)c(C#N)c34)c(C(F)(F)F)cc12)[C@@H]1C[C@H](C)N(C(=O)N(C)C)C1` (atropisomer, axis not shown) [Compound 545]: the IC50 was 100 to 1000 nM in assay [1] (KRAS G12D-GppNHp/RAF1 RBD HTRF); 1000 to 10000 nM in assay [2] (KRAS G12R-GppNHp/RAF1 RBD HTRF); 1000 to 10000 nM in assay [3] (KRAS G12V-GppNHp/RAF1 RBD HTRF); 100 to 1000 nM in assay [4] (KRAS WT-GppNHp/RAF1 RBD HTRF); less than 100 nM in assay [5] (GP2d); less than 100 nM in assay [6] (setting [7]).

As for `C[C@@H]1Cn2nc(C(=O)N(C)C)cc2CN1c1nc(OC[C@@]23CCCN2C[C@H](F)C3)nc2c(F)c(-c3ccc(F)c4sc(N)c(C#N)c34)c(C(F)(F)F)cc12` [Compound 510], the IC50 in assay [1] (KRAS G12D-GppNHp/RAF1 RBD HTRF) is 1000 to 10000 nM; in assay [2] (KRAS G12R-GppNHp/RAF1 RBD HTRF) it was 100 to 1000 nM; in assay [3] (KRAS G12V-GppNHp/RAF1 RBD HTRF), 1000 to 10000 nM; in assay [4] (KRAS WT-GppNHp/RAF1 RBD HTRF), 1000 to 10000 nM; in assay [5] (GP2d) it was less than 100 nM; in assay [6] (setting [7]) it was less than 100 nM.

Consider `CCN(c1nc(OC[C@@]23CCCN2C[C@H](F)C3)nc2c(F)c(-c3ccc(F)c4sc(N)c(C#N)c34)c(C(F)(F)F)cc12)[C@H]1CCN(C(=O)OC2CCOCC2)C1` (atropisomer, axis not shown) [Compound 684], for which the IC50 in assay [1] (setting [8]) is less than 100 nM; in assay [2] (setting [9]) it was less than 100 nM; in assay [3] (setting [10]) it was less than 100 nM; in assay [4] (setting [11]), less than 100 nM; in assay [5] (GP2d, class symbols), less than 100 nM; in assay [6] (setting [12]), less than 100 nM.
